Results as given in PubChem BioAssay (NCI).
“And” between values parts separate entries of the source, which are not always exact repeats. Equal entries are not always repeated.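 In this assay, cells in 96-well plates receive the compound at five concentrations for 48 hours. Endpoints are linearly interpolated between the surrounding concentrations. GI50 = concentration required for 50% inhibition of growth. The concentration for full growth arrest is given as TGI.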

Experiments:
Experiment in all cases: inhibition of tumour cell growth, NCI panel, 48 h
[1] = tested on: SW-620 colon
[2] = tested on: A498 renal
[3] = tested on: MCF7 breast
[4] = tested on: NCI-H460 lung
[5] = tested on: OVCAR-8 ovarian
[6] = tested on: SNB-19 CNS
[7] = tested on: HOP-92 NSCLC
[8] = tested on: CAKI-1 renal
[9] = tested on: OVCAR-3 ovarian
[10] = tested on: KM12 colon

| SMILES | GI50 [1] | TGI [1] | GI50 [2] | TGI [2] | GI50 [3] | TGI [3] | GI50 [4] | TGI [4] | GI50 [5] | TGI [5] | GI50 [6] [µM] | TGI [6] | GI50 [7] | TGI [7] | GI50 [8] | TGI [8] | GI50 [9] | TGI [9] | GI50 [10] | TGI [10] |
| --- | --- | --- | --- | --- | --- | --- | --- | --- | --- | --- | --- | --- | --- | --- | --- | --- | --- | --- | --- | --- |
| NC(N)=N/N=C/c1ccc(Br)cc1 | 3.8 µM | 15.9 µM | 3.57 µM | 13.7 µM | 2.28 µM | 11.7 µM | 3.29 µM | 11.7 µM | 5.3 µM | 21.2 µM | 5.74 | 24.2 µM | 5.78 µM | 24 µM | 3.02 µM | 15.2 µM | 3.41 µM | 9.23 µM | 3.42 µM | 15.5 µM |
| O=C1C=C(OCC=C(Cl)Cl)C(=O)c2ccccc21 | 3.51 µM | 11.1 µM | > 86.2 µM | > 100 µM | 1.61 µM | 3.81 µM | 39.3 µM | > 100 µM | 3.29 µM | 15.8 µM | > 91.1 | > 100 µM | 2.68 µM | 9.28 µM | 23.3 µM | > 100 µM | 1.9 µM | 4.13 µM | 8.41 µM | > 90.7 µM |
| CN1CCN(Cc2ccc(NC(=O)c3cncc(C#Cc4ncc5ccccn45)c3)cc2C(F)(F)F)CC1 | 0.842 µM | 3.12 µM | 2.83 µM | 5.96 µM | 0.738 µM | 3.07 µM | 1.02 µM | 3.86 µM | 2.21 µM | 5.42 µM | 3.09 | 8.44 µM | 0.762 µM | 2.37 µM | 0.913 µM | 3.99 µM | 2.43 µM | 8.21 µM | 0.0112 µM | 2.9 µM |
| COc1cc[nH]c1/C=C1\C(=O)Nc2ccc([N+](=O)[O-])c(N3CC[C@@H](O)C3)c21 | 0.205 µM | 9.49 µM | 0.182 µM | 0.815 µM | 0.121 µM | 2.85 µM | 0.119 µM | 2.92 µM | 0.278 µM | 3.46 µM | 0.495 | 5.68 µM | 0.544 µM | 2.47 µM | 0.369 µM | 1.63 µM | 0.131 µM | 1.59 µM | 0.101 µM | 2.22 µM |
| C=CC(=O)Nc1cccc(Nc2nc(Nc3ccc(N4CCN(C(C)=O)CC4)cc3OC)ncc2C(F)(F)F)c1 | 3.07 µM and 2.29 µM | > 10 µM and 12.7 µM | 2 µM and 0.802 µM | 6.01 µM and 2.94 µM | 1.41 µM and 0.933 µM | > 100 µM | 3.87 µM and 3.24 µM | > 100 µM | 4.05 µM and 3.51 µM | > 10 µM and 98.2 µM | 5.83 | > 100 µM | 0.787 µM and 0.525 µM | 4.88 µM and 4.21 µM | 2.32 µM and 1.64 µM | > 10 µM and 6.01 µM | 3.69 µM and 1.07 µM | > 30.3 µM | 7.48 µM and 5.58 µM | > 10 µM and 38.6 µM |
| CCCNC(=O)Nc1ccc2c(c1)Cc1cc(N(CCCl)CCCl)ccc1-2 |  | > 100 µM |  | 33.4 µM |  | 77.5 µM |  | > 100 µM |  | > 100 µM |  | 94.8 µM |  | 67.8 µM |  | > 100 µM |  | 54.4 µM |  | 56.5 µM |
| NCCNc1ncnc2ccc(Cl)cc12 |  | > 100 µM |  | > 100 µM |  | > 100 µM |  | > 100 µM |  | > 100 µM |  | > 100 µM |  | > 100 µM |  | > 100 µM |  | > 100 µM |  | > 100 µM |
| CNCC1CCn2c(c(C3=C(c4cn(C)c5ccccc45)C(=O)NC3=O)c3ccccc32)C1 (stereo unspecified) | 2.04 µM | 5.6 µM | 5.65 µM | 14.5 µM | 1.74 µM | 5.17 µM | 2.91 µM | 6.55 µM | 3.87 µM | 10.4 µM | 4.58 | 16.3 µM | 0.13 µM | 8.64 µM | 3.68 µM | 9.28 µM | 3.98 µM | 8.97 µM | 3.41 µM | 7.41 µM |
| COc1ccc(-c2cc3c(N)ncnc3o2)cc1 | > 25 µM | > 25 µM | 8.14 µM | > 25 µM | > 25 µM | > 25 µM | > 25 µM | > 25 µM | > 25 µM | > 25 µM | > 25 | > 25 µM | 17.1 µM | > 25 µM | 17.6 µM | > 25 µM | > 25 µM | > 25 µM | > 25 µM | > 25 µM |
| COc1ccc2c(c1)C(=O)c1c-2n(CCCNCCO)c(=O)c2cc([N+](=O)[O-])ccc12 | < 0.01 µM | 1.14 µM | < 0.015 µM | < 0.0482 µM | < 0.01 µM | 0.0264 µM | < 0.01 µM | 0.0148 µM | < 0.01 µM | 1.34 µM | < 0.01 | 19.9 µM | < 0.0108 µM | 0.149 µM | < 0.01 µM | 0.0602 µM | 0.0171 µM | 0.586 µM | 0.0255 µM | 0.739 µM |
| CCC(=O)OCN1C(=O)C=CC1=O |  | 3.58 µM and 4.43 µM | > 100 µM | > 100 µM |  | 40.9 µM and 39.7 µM | 21.3 µM | 44.2 µM and 33.7 µM |  | 35 µM and 37 µM | > 100 | > 100 µM and 32.5 µM | 2.65 µM | 16.7 µM and 31.6 µM | 10.5 µM | 25.3 µM and 9.35 µM | 12.9 µM | 25.7 µM and 18.6 µM | 19.3 µM | 35.1 µM and 30.8 µM |
| NC(N)=NC(N)=NCc1ccco1 | > 1250 µM | > 1250 µM | 190 µM and > 1250 µM | > 1250 µM | 600 µM | > 1250 µM | 866 µM and 766 µM | > 1250 µM | 896 µM | > 1250 µM | > 1250 | > 1250 µM | 116 µM |  | 758 µM | > 1250 µM | 847 µM | > 1250 µM | > 1250 µM | > 1250 µM |
